Measurements from patent publication US20130130991A1, “USE OF A PEPTIDE ENHANCING THE ABILITY OF RADIATION THERAPY TO KILL CANCER CELLS” (UNIVERSITE DE LAUSANNE, priority 2010, published 2013).
Entries after “also recorded” stand apart in the source; their conditions may differ.

Columns and labels:
tumor cells = conditions: cited from earlier work
HCT116 p53−/− tumors = assay: Radio-sensitization in mice bearing HCT116 p53-/- xenografts; assay type: in vivo; conditions: 1 mg/kg i.p. every day for 10 days, γ-irradiation 3 Gy 1 hour after injection, nu/nu mice
Excerpt: (§1) Immunodeficient mice bearing subcutaneous tumors allow easy access of the tumors to defined fractionated irradiation doses with minimal effect on surrounding tissues and without the need of anesthesia. This latter point is important because anesthesia can modify the response to radiation therapy (Denekamp, 1979) and anesthesia is generally not used in patients during radiotherapy.
(§2) HCT116 tumor cells, lacking or not p53, were grafted onto the back of female Swiss homozygous nu/nu mice leading to the development of subcutaneous tumors. Then, the immunodeficient mice bearing subcutaneous tumors were divided into four experimental groups as follows:
(§3) 1) Intraperitoneal PBS injections and no irradiation. 2) Intraperitoneal TAT-RasGAP317-326 injections (every day, 1 mg peptide per kg of mouse in 300 μl PBS) and no irradiation. 3) Intraperitoneal PBS injection and γ-irradiation (3 Gy). 4) Intraperitoneal TAT-RasGAP317-326 injections and γ-irradiation.
(§4) The treatments (i.e. peptide injections followed by irradiation) were performed every day for 10 days without interruption. γ-irradiation was performed 1 hour after the peptide injection. The size of the tumors was monitored 3 times a week. #: mice were sacrificed when the tumors reached a volume of about 800 mm^3.

HCT116p53+/+ cells = assay: Clonogenic assay (CFA) after γ-irradiation, HCT116 p53+/+; assay type: cell-based; conditions: 20 μM peptide, γ radiation 0-8 Gray, colonies counted after two weeks
Description: (§5) One hundred HeLa cells or 500 HCT116p53^+/+ or 500 HCT116p53^−/− cells were seeded in 8.5 cm plates and after 24 hours later treated or not with TAT or TAT-RasGAP317-326 (20 μM) prior exposure to the various doses of γ radiation (0, 1, 2, 4, 6 or 8 Gray).
(§6) After two weeks, the culture medium was removed and the plates were gently washed with water. A crystal violet solution (0.5% crystal violet in 25% methanol) was then added to stain colonies and gently washed out with water. The number of colonies was then counted.
(§7) The clonogenic formation assay (CFA) was performed using cancer cell lines (HCT116 with or without p53) (FIG. 1A-B) and non-tumorigenic HaCaT cells (FIG. 1C) that were subjected to the various doses of γ radiation (0, 1, 2, or 4, Gray), in the presence or in absence of TAT-RasGAP317-326 (20 μM). The number of colonies was determined two weeks after irradiation.

tumor growth = conditions: cited from earlier work
HCT116 xenografts = assay: Radio-sensitization in mice bearing HCT116 xenografts; assay type: in vivo; conditions: 1 mg/kg i.p. every day for 10 days, γ-irradiation 3 Gy 1 hour after injection, nu/nu mice
Excerpt: as §1, §2, §3, §4

HaCaT cells = assay: Clonogenic assay (CFA) after γ-irradiation, non-tumorigenic HaCaT; assay type: cell-based; conditions: 20 μM peptide, γ radiation 0, 1, 2 or 4 Gray, colonies after two weeks
Description: as §6, §7

HCT116p53−/− cells = assay: Clonogenic assay (CFA) after γ-irradiation, HCT116 p53-/-; assay type: cell-based; conditions: 20 μM peptide, γ radiation 0-8 Gray, colonies counted after two weeks
Description: as §5, §6, §7

Substance: TAT-RasGAP317-326: HIV-TAT48-57 peptide conjugated to RasGAP317-326 (WMWVTNLRTD) with two glycine residues as spacer; cell permeable peptide (GRKKRRQRRRGGWMWVTNLRTD)
- sensitization of non-tumor cells to genotoxin-induced apoptosis (tumor cells; non-tumor cells): nor does it sensitize non-tumor cells
- apoptosis of tumor cells by the peptide alone (tumor cells; peptide by itself): does not by itself modulate apoptosis of tumor cells
- sensitization of tumor cells to genotoxin-induced death (tumor cells; tumor cells with genotoxin): specifically sensitizes tumor cells to genotoxin-induced death
- growth of irradiated HCT116 p53−/− tumors (HCT116 p53−/− tumors): very efficiently hampered
- efficacy of γ-irradiation-mediated cell killing (number of colonies) (HCT116p53+/+ cells): increases the efficacy of γ-irradiation-mediated cell killing
- ability of cisplatin and other genotoxins to inhibit tumor growth (tumor growth; combined with genotoxins): increases the ability of cisplatin and other genotoxins to inhibit tumor growth
- dose still exerting genotoxin-sensitization on tumor growth, relative to lethal doses (tumor growth; mouse, in vivo): > 100 fold below the lethal doses
- tumor growth / tumor volume of irradiated tumors (HCT116 xenografts): significant growth delay and reduction in tumor volume
- γ-radiation-sensitivity of non-cancer cells (number of colonies) (HaCaT cells): not in a non-cancer cell line; also recorded: no influence on the γ-radiation-sensitivity
- efficacy of γ-irradiation-mediated cell killing (number of colonies) (HCT116p53−/− cells): increases the efficacy of γ-irradiation-mediated cell killing
